Test results reported in patent US20040063685A1, “Combination Drugs” (priority 2000, published 2004).

How the values were obtained:
[1] = crystals
E. coli O111 strain = assay: Survival of mice intraperitoneally inoculated with E. coli O111, combined use with ceftazidime; format: in vivo; details: FIG. 1
Method: The E. coli O111 strain was suspended in 5% mucin, and 0.5 ml thereof was intraperitoneally inoculated to mice (BALB/c, male, 5-week-old) (9×10^4 CFU per mouse). At 1 hr after inoculation, an antibacterial agent, ceftazidime (CAZ, 12.5 μg/kg) was administered subcutaneously, and compound 29 (test compound 30 mg/kg) of Reference Example B65 suspended in a 0.5% methyl cellulose (MC) solution was simultaneously administered orally.

For `CCOC(=O)C1=CCCCC1S(=O)(=O)Nc1ccc(F)cc1Cl` (stereo not drawn) [crystals of compound B, d-ethyl 6-[N-(2-chloro-4-fluorophenyl)sulfamoyl]-1-cyclohexene-1-carboxylate], the hygroscopicity [1] was “low”.

In the case of `CCOC(=O)C1=CCCCC1S(=O)(=O)Nc1ccc(F)cc1Cl` (stereo not drawn) [compound 29, ethyl 6-[N-(2-chloro-4-fluorophenyl)sulfamoyl]-1-cyclohexene-1-carboxylate], the survival rate (E. coli O111 strain; combined use: compound 29 30 mg/kg orally (0.5% methyl cellulose) and ceftazidime (CAZ) 12.5 μg/kg subcutaneously at 1 hr after inoculation, BALB/c male mice, 9×10^4 CFU per mouse, monitored for a week) is reported as “remarkably increases” and the “effectiveness of test compound alone (survival)” value (E. coli O111 strain; compound 29 30 mg/kg orally without ceftazidime, BALB/c mice infected with E. coli O111) is reported as “low effectiveness”.
